# Assay results taken from US20170211048A1, “ENHANCED REPROGRAMMING TO IPS CELLS” (Boehringer Ingelheim International GmbH, priority 2014, published 2017).
# What was measured:
# Assay type in all cases: cell-based, mouse
# [1] = test system: Reprogrammable transgenic MEFs (Tet-OKSM, Rosa26-rtTAM2, Oct4-GFP); experiment: transient siRNA transfection during iPSC reprogramming; conditions: siRNA transfected 1 to 3 times during doxycycline treatment
# Source text: FIG. 26: Transient suppression of Chaf1a, Chaf1b or Ube2i using siRNA transfection enhances iPSC reprogramming. Reprogrammable transgenic MEFs (Tet-OKSM, Rosa26-rtTAM2, Oct4-GFP) where transfected 1 to 3 times at the indicated days of doxycyline treatment with siRNAs targeting Renilla, Chaf1a, Chaf1b, Ube2i. Shown is the fraction of Oct4-GFP positive cells after 11 days. […] Suppression of these targets at early time points of reprogramming (day 1-3 following OKSM expression) seems critical and sequential transfections at different days can enhance this effect. […] The siRNA molecules used in the study have the following sequence: Ube2i.414—2: […] (SEQ ID NO:103), Chaf1a.3120 […] (SEQ ID NO:104), Chaf1b.271 […] (SEQ ID NO:105) and Ren.713 […] (SEQ ID NO:106).
# [2] = test system: Oct4-GFP;CAGGS-rtTA3 double-transgenic MEFs; experiment: short-term transient OKSM expression and Tet-regulated shRNA; conditions: doxycycline for 2 or 4 days
# Method: FIG. 22: Short-term transient expression of OKSM and suppression of Chaf1a for only 2-4 days enable robust iPSC reprogramming. Oct4-GFP;CAGGS-rtTA3 double-transgenic MEFs were first transduced with a Tet-regulatable shRNA expression vector encoding a potent Chaf1a shRNA (T3G-mCherry-miRE.Chaf1a.3118), and 3 days later transduced with lentiviral vectors inducibly expressing OKSM from the Tet-responsive promoters TRE (TetO-STEMCCA) or TRE3G (T3G-4Fpuro). Cell were treated with doxycyline for 2 or 4 days starting at day in OKSM infection, triggering a transient and reversible OKSM expression and Chaf1a suppression. Shown is the percentage of Oct4-GFP positive cells at day 11 after lentiviral infection. Error bars indicate standard deviation (SD) of 3 biological replicates. Suppression of Chaf1a, Chaf1b and Ube2i enhance iPSC reprogramming in the use of both Tet-inducible OKSM expression vectors.
# OSKM/RR/OG-MEFs = experiment: single-shRNA validation, flow cytometry of the Oct4-GFP reporter; conditions: FIG. 1, day 11 after doxycycline induction; DMEM with FCS and ascorbate
# Method: To validate hits identified in the primary multiplexed screen, a set of 32 independent shRNAs including several of the top hits as well as a panel of intermediately scoring shRNAs were tested in single assays. To this end, OSKM/RR/OG-MEFs were transduced with individual pLENC shRNAs in biological triplicates, selected, and treated with Dox for OSKM induction. The iPS reprogramming efficacy was quantified using flow cytometry analysis of the Oct-4-GFP reporter (FIG. 1) and microscopy (FIG. 2a).
# To this end, described MEFs with doxycycline inducible reprogramming factors (OSKM, 4F, Yamanaka factors) were transduced with pLENC-shRNA vectors (co-expressing miRE-based shRNAs, mCherry and a Neo resistance gene) in biological triplicate as described previously. Selection for infected cells was based on G418 resistance. 3 days after infection, cells were trypsinized and each replicate was plated in multiple wells in presence of FCS and ascorbate containing medium as well as doxycycline. Cells were subjected to various conditions for iPS formation starting 24 h after Doxycycline addition, i.e. prior to expected full expression of OSKM factors. Doxycycline was added to media for 7 days. […]
# shRNAs were transduced into OSKM MEFs. […] Cells were analyzed using a FACS BD LSRFortessa.
# [3] = test system: MEFs with doxycycline inducible reprogramming factors; experiment: iPS colony formation assay in serum replacement, LIF and 2i; conditions: 2i plus LIF at single cell density, 10000 cells/10 cm dish, doxycycline 7 days
# Source text: In order to test the achieved factor of iPS formation enhancement in a colony formation assay, we chose optimal conditions described for iPS formation, i.e. serum replacement, LIF and 2i. The two inhibitors (2i) are shown to support the ground state of pluripotency and enhance iPS formation. More specifically, 2i supports the transition of pre-iPS cells to iPS cells.
# In doing so, we intended to measure the factor of improvement in optimal, potentially saturated conditions. 10000 cells were plated/10 cm dish and reprogramming was induced by addition of doxycycline for 7 days. Reprogramming in presence of 2i furthermore represents an additional condition to test versatility of herein described enhanced reprogramming regimen. […]
# reprogrammable MEFs = experiment: FACS based timeline of Oct4-GFP expression during reprogramming; conditions: days of OKSM expression, FIG. 3
# Source text: In order to observe the kinetics of reprogramming in the enhanced reprogramming regimen, we quantified GFP positive cells using FACS analysis. GFP driven from the endogenous Oct4 locus serves as a marker for Oct4 expression and thus iPS and possibly pre-iPS state. […] In contrast, Ube2i suppression only slightly accelerated the reprogramming timeline, but made the process much more efficient, and ultimately exceeds the effects of observed for Caf-1 suppression (i.e. the percentage of GFP+ cells actually overtakes the enhancement achieve through Caf-1 suppression at day 10).
# The inventors further decided to examine the effects of the gene expression reduction in the absence of the identified chromatin barriers, by following the emergence of Oct4-GFP^+ cells over time. While suppression of Ube2i promoted Oct4-GFP activation slightly earlier than controls (day six with Ube2i shRNA vs. day nine with Renilla shRNA), the suppression of either CAF-1 subunit triggered a dramatic acceleration of this process and consistently generated Oct4-GFP+ cells as early as four days of OKSM expression (FIG. 3). Similar effects were observed by flow cytometry-based analysis of Nanog expression (FIG. 15).
substance,measurement,setting,value
"CACAATTTACTGCCAAAACAA (listed as DNA, chemistry not fully specified) [Ube2i.414—2]",effect on fraction of Oct4-GFP positive cells after 11 days,[1],enhances reprogramming
"CAGCTACTTCCAAATTGTAAA (listed as DNA, chemistry not fully specified) [Chaf1a.3120]",effect on fraction of Oct4-GFP positive cells after 11 days,[1],enhances reprogramming
UUUACAAUUUGGAAGUAGCUG (expressed or natural sequence) [Chaf1a.3118],iPS cell formation (Oct4-GFP positive cells at day 11),[2],robust formation of iPS cells
shRNA.Ren.713: neutral control shRNA (Ren.713) targeting Renilla (guide AGGAATTATAATGCTTATCTA),Oct4-GFP+ cells,OSKM/RR/OG-MEFs,< 1%
same,Colony number,[3],0
same,time of Oct4-GFP activation,reprogrammable MEFs,day nine
